In patent US12599597B2, “Substituted N-benzhydrylacetamide inhibitors of jumanji domain histone demethylases for the treatment of cancer” (University of Kentucky Research Foundation, priority 2020, dated 2026) one finds inhibition data, which are given here for one compound.

Test in all cases: Histone demethylase assay, purified enzyme panel
Holding throughout (assay type): biochemical
Common to all, as to settings: 58B1, 10 μM

The target in assay [1] is T1, FBXL10 (KDM2B) (Homo sapiens, UniProt Q8NHM5).
T1 sequence (Q8NHM5 1-1336): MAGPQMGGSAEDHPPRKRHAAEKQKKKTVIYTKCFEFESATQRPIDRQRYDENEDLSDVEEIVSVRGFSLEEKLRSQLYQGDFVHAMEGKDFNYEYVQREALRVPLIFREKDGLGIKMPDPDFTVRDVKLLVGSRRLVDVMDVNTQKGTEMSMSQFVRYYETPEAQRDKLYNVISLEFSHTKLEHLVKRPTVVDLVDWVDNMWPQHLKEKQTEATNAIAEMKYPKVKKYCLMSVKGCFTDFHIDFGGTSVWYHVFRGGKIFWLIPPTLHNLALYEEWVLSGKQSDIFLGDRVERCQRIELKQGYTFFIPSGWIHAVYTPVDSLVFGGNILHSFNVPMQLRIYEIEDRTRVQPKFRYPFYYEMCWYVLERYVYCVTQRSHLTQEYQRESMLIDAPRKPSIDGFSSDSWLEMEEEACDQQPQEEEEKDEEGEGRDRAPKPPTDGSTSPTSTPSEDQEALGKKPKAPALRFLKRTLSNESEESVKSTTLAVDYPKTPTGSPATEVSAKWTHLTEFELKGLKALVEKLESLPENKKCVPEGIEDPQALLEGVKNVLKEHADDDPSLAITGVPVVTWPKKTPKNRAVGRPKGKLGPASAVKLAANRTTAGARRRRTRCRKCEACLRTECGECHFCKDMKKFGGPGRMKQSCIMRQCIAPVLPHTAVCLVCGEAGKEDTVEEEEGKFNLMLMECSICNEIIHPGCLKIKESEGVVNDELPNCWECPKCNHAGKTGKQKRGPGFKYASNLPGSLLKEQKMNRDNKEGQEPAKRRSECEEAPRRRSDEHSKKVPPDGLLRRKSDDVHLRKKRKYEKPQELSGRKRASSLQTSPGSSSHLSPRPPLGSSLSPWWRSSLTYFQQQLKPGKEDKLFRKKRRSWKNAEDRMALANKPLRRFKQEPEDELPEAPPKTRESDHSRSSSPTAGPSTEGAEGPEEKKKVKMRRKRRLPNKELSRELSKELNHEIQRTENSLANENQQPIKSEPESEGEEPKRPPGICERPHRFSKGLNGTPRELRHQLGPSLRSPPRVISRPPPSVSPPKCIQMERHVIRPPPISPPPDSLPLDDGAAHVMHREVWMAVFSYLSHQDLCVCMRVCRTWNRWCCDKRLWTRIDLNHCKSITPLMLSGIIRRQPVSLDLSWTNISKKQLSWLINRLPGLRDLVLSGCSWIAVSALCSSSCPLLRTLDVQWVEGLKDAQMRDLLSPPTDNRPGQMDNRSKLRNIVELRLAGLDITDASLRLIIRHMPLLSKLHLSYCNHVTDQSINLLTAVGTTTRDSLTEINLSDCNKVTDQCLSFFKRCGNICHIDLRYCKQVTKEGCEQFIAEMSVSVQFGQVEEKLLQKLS
An excerpt:
(§1) Histone Demethylase Assay
(§2) To further examine the effects of 58B1 on histone demethylase, we screened a panel of purified histone demethylases was screened.

Assay [2] concerns the target T2, JMJD2C (KDM4C) (Homo sapiens, UniProt Q9H3R0).
T2 sequence (Q9H3R0 1-1056): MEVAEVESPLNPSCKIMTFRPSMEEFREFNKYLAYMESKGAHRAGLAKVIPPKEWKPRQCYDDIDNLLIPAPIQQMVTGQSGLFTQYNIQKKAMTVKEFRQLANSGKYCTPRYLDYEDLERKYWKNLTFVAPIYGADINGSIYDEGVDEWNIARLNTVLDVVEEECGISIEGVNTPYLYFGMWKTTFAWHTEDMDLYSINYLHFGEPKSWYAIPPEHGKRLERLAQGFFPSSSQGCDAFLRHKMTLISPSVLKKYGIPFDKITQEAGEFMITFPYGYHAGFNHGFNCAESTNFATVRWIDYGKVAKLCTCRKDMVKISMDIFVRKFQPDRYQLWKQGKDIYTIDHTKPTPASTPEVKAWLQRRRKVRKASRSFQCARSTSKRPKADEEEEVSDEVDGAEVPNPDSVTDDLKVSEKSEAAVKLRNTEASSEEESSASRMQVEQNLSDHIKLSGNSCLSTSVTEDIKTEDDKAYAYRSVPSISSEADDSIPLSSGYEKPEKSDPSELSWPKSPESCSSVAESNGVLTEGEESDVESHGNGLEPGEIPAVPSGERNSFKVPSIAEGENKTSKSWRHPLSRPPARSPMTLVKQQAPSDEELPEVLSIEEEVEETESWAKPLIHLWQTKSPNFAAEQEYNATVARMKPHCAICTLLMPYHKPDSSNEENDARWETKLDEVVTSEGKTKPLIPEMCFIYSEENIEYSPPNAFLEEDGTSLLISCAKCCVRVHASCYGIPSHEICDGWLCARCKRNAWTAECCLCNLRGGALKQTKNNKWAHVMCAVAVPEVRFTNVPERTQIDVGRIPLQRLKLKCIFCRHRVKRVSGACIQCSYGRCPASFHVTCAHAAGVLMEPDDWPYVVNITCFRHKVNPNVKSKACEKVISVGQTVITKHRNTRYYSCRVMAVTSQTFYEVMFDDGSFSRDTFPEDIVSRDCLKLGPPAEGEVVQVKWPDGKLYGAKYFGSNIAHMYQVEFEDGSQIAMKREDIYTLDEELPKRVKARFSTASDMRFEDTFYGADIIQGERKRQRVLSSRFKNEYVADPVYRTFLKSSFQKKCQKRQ
Excerpt: as §1, §2

The target in assay [3] is UTX (KDM6A) (Homo sapiens, UniProt O15550).
Excerpt: as §1, §2

Sequence of UTX (KDM6A) (O15550 whole entry): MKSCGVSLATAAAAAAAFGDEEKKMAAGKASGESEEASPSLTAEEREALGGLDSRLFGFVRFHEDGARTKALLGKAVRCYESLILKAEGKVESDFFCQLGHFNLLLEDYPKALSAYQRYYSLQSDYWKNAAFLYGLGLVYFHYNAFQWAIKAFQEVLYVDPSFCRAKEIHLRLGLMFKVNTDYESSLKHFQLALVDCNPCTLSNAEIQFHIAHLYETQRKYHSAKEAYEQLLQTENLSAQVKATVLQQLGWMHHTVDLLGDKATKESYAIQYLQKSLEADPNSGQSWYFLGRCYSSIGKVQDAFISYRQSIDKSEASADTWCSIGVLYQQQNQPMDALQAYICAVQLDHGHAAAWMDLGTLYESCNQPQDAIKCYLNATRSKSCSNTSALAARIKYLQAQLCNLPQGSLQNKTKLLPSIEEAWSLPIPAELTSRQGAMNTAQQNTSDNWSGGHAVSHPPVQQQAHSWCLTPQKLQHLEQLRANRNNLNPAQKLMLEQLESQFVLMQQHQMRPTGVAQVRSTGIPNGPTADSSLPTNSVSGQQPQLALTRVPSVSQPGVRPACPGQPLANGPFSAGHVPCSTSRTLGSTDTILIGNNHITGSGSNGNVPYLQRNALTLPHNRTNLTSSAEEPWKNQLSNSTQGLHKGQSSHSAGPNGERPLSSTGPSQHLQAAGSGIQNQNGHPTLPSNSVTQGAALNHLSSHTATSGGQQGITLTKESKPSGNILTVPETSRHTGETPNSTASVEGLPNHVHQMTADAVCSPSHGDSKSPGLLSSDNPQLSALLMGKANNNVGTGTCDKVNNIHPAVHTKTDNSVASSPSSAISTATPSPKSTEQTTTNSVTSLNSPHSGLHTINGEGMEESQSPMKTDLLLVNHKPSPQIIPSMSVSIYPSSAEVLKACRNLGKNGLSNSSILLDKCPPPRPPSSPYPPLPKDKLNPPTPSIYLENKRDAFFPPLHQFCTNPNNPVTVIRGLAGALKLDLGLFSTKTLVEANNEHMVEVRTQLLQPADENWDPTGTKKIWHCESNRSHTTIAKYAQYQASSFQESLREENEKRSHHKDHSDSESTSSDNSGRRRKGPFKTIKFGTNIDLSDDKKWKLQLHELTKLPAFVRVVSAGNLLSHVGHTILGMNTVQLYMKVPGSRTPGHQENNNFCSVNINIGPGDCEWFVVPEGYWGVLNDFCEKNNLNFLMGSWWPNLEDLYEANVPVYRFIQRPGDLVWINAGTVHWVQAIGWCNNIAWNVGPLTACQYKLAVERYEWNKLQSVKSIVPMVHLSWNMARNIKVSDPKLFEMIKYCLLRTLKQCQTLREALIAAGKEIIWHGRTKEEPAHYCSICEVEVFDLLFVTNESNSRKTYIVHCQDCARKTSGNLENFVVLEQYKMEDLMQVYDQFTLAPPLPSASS

Regarding `CCCC(=O)NC(c1ccc(N(CC)CC)cc1)c1cc(Cl)c2cccnc2c1O` (stereo not drawn) [58B1], the inhibition at 10 µM in assay [1] is 30%; in assay [2] it was 72%; in assay [3] it was 100%.
